Experimental data from patent publication US20240059689A1, “PURINE DERIVATIVES AS ANTICANCER AGENTS” (Tango Therapeutics, Inc., priority 2021, published 2024).

What was measured:
USP1-UAF1 = USP1-UAF1 (Homo sapiens, UniProt O94782); experiment: Ubiquitin Rhodamine assay of USP1-UAF1 activity; format: biochemical
Method: Certain compounds of the disclosure were assessed for USP1-UAF1 activity in a Ubiquitin Rhodamine assay as described in Biology Example 1.

HCC1954 = experiment: Viability assay, BRCA1 WT cell line HCC1954; format: cell-based; conditions: Homo sapiens, HCC1954, viability, read-out: HCC1954 rel IC50
Excerpt: (§1) Table 1 also indicates IC50 values in a viability assay for a non-isogenic pair of BRCA1 mutant (column 5-MDA-MB-436) and BRCA1 WT (column 6—HCC1954) cell lines. These values indicate the effect of treatment with compound on cell survival.

monoubiquitinated PCNA = experiment: AlphaLISA assay measuring monoubiquitinated PCNA in MDA-MB-436; format: cell-based; conditions: Homo sapiens, MDA-MB-436, monoubiquitinated PCNA, read-out: Alpha Lisa IC50
Excerpt: Table 1 also indicates IC50 values for exemplary compounds in an AlphaLISA assay measuring monoubiquitinated PCNA in a BRCA1 mutant cell line (MDA-MB-436; column 7).

MDA-MB-436 = experiment: Viability assay, BRCA1 mutant cell line MDA-MB-436; format: cell-based; conditions: Homo sapiens, MDA-MB-436, viability, BRCA1 mutant MDA-MB-436; read-out: MDA-MB-436 rel IC50
Excerpt: as §1

USP1-UAF1, sequence (O94782 whole entry): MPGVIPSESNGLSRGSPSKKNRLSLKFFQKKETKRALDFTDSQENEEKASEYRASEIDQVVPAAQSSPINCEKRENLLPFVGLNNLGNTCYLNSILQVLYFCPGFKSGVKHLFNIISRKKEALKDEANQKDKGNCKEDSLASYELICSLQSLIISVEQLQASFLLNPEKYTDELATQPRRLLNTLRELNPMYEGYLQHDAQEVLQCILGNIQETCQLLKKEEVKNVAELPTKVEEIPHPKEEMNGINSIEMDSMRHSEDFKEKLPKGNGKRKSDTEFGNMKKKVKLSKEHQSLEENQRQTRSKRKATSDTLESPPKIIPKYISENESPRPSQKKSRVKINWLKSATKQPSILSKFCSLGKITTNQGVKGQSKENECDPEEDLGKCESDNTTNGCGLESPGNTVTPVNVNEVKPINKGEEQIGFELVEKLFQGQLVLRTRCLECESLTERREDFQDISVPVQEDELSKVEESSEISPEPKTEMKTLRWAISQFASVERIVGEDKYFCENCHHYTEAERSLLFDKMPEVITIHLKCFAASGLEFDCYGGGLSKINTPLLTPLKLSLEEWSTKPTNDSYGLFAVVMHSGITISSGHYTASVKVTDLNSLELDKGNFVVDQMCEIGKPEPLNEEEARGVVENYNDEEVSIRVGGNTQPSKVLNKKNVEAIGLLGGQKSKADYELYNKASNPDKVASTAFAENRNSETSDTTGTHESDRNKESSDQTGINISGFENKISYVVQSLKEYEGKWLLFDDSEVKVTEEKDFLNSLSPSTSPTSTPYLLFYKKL
USP1-UAF1, sequence (Q8TAF3 whole entry partner): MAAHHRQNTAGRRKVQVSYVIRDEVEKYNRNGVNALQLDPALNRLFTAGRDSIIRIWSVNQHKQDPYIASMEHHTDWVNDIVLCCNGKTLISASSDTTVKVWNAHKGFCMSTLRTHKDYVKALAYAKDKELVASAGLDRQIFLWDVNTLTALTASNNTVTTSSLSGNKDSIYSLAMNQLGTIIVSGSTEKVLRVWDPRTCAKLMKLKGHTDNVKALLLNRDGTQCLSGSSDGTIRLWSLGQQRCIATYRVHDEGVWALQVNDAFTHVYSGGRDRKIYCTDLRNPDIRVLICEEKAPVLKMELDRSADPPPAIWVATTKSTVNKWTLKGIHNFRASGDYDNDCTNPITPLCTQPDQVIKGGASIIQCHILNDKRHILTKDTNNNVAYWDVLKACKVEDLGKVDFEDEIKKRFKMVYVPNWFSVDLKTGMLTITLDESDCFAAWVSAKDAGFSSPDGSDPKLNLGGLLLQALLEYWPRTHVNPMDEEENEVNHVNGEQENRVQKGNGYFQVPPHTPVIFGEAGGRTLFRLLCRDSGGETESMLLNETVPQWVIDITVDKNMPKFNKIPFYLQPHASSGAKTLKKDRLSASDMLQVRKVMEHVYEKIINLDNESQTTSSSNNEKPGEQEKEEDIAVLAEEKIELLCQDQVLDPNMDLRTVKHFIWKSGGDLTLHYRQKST

Structure (SMILES)	IC50 (USP1-UAF1) [nM]	IC50 (HCC1954) [nM]	IC50 (monoubiquitinated PCNA) [nM]	IC50 (MDA-MB-436) [nM]
COc1ncnc(C2CC2)c1-c1ncc2c(n1)n(Cc1ccc(-n3nc(C(F)(F)F)cc3OC)cc1)c(=N)n2CC(F)F [Example T-113, 2-(4-cyclopropyl-6-methoxy-pyrimidin-5-yl)-7-(2,2-difluoroethyl)-9-[[4-[5-methoxy-3-(trifluoromethyl)pyrazol-1-yl]phenyl]methyl]purin-8-imine]	< 30	≥ 10000	< 100	< 100
COc1ncnc(C2CC2)c1-c1ncc2c(n1)n(Cc1ccc(-n3nc(C(F)(F)F)cc3OC)cc1)c(=N)n2CC(F)(F)F [Example T-117, 2-(4-cyclopropyl-6-methoxy-pyrimidin-5-yl)-9-[[4-[5-methoxy-3-(trifluoromethyl)pyrazol-1-yl]phenyl]methyl]-7-(2,2,2-trifluoroethyl)purin-8-imine]	30 to 100	≥ 10000	< 100	< 100
COc1ncnc(C2CC2)c1-c1ncc2c(n1)n(Cc1ccc(-c3nc(C(F)(F)F)cn3C)c(F)c1)c(=N)n2CC(F)(F)F [Example T-118, 2-(4-cyclopropyl-6-methoxypyrimidin-5-yl)-9-(3-fluoro-4-(1-methyl-4-(trifluoromethyl)-1H-imidazol-2-yl)benzyl)-7-(2,2,2-trifluoroethyl)-7H-purin-8(9H)-imine]	100 to 10000	≥ 10000	< 100	< 100
COc1nccc(F)c1-c1ncc2c(n1)n(Cc1ccc(-c3nc(C(F)(F)F)cn3C)cc1)c(=N)n2CC(F)(F)F [Example T-121, 2-(4-fluoro-2-methoxy-3-pyridyl)-9-[[4-[1-methyl-4-(trifluoromethyl)imidazol-2-yl]phenyl]methyl]-7-(2,2,2-trifluoroethyl)purin-8-imine]	30 to 100	≥ 10000	250 to 10000	100 to 250

Further lines, results first:

IC50 (USP1-UAF1) [nM]	IC50 (HCC1954) [nM]	IC50 (monoubiquitinated PCNA) [nM]	IC50 (MDA-MB-436) [nM]	Structure (SMILES)
30 to 100	≥ 10000	< 100	< 100	CCOc1cc(C(F)(F)F)nn1-c1ccc(Cn2c(=N)n(CC(F)(F)F)c3cnc(-c4c(OC)ncnc4C4CC4)nc32)cc1 [Example T-114]
30 to 100	250 to 10000	100 to 250	100 to 250	Cc1ccnc(OC(F)F)c1-c1ncc2c(n1)n(Cc1ccc(-c3nc(C(F)(F)F)cn3C)cc1)c(=N)n2CC(F)(F)F [Example T-115, 2-(2-(difluoromethoxy)-4-methylpyridin-3-yl)-9-(4-(1-methyl-4-(trifluoromethyl)-1H-imidazol-2-yl)benzyl)-7-(2,2,2-trifluoroethyl)-7H-purin-8(9H)-imine]
100 to 10000	≥ 10000	< 100	< 100	COc1ncnc(C2CC2(F)F)c1-c1ncc2c(n1)n(Cc1ccc(-c3nc(C(F)(F)F)cn3C)cc1)c(=N)n2CC(F)(F)F (stereo not drawn) [Example T-116, 2-[4-(2,2-difluorocyclopropyl)-6-methoxy-pyrimidin-5-yl]-9-[[4-[1-methyl-4-(trifluoromethyl)imidazol-2-yl]phenyl]methyl]-7-(2,2,2-trifluoroethyl)purin-8-imine]
100 to 10000	≥ 10000	100 to 250	100 to 250	CCOc1ncnc(C2CC2)c1-c1ncc2c(n1)n(Cc1ccc(-c3nc(C(F)(F)F)cn3C)cc1)c(=N)n2CC(F)(F)F [Example T-119, 2-(4-cyclopropyl-6-ethoxy-pyrimidin-5-yl)-9-[[4-[1-methyl-4-(trifluoromethyl)imidazol-2-yl]phenyl]methyl]-7-(2,2,2-trifluoroethyl)purin-8-imine]
< 30	≥ 10000	< 100	< 100	COc1ncnc(C2CC2)c1-c1ncc2c(n1)n(Cc1ccc(-c3nc(C(F)(F)F)cn3C3CCC3)cc1)c(=N)n2CC(F)(F)F [Example T-120, 9-[[4-[1-cyclobutyl-4-(trifluoromethyl)imidazol-2-yl]phenyl]methyl]-2-(4-cyclopropyl-6-methoxy-pyrimidin-5-yl)-7-(2,2,2-trifluoroethyl)purin-8-imine]
